Laboratory results published in patent US8008023B2, “Natural ligand of G protein coupled receptor RCC356 and uses thereof” (Chemcom S.A., priority 2005, dated 2011).

molecular target: T1, RCC356 (Homo sapiens, UniProt Q8TCB6); test: Screening of 80 odorants on RCC356 overexpressed in Hek293 cells, CRE-luciferase reporter (Dual-Glo); assay type: cell-based; details: Hek293 overexpressing RCC356; odorants plated as 200 μM solutions in HBSS; two independent screenings
T1 construct: expressed in transfected cells; host or cells: Hek293 cells, transient transfection with lipofectamine 2000
T1 sequence (Q8TCB6 1-318): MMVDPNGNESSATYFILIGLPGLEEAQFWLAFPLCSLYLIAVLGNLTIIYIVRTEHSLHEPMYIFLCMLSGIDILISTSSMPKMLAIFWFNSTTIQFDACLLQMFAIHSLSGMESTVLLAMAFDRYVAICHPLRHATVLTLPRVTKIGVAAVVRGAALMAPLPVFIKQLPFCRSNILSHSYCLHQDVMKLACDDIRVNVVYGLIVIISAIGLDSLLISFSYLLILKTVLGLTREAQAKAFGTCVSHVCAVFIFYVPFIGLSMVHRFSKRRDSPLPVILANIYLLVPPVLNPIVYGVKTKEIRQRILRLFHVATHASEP
Experimental: (§1) Hek293 cells were grown in MEM supplemented with decomplemented FBS at 37° C. under 5% CO2 and 90% humidity. Two days before screening, cells were plated onto 96-well plates (PDL coated plates, Becton-Dickinson). The day after, cells were transfected with a plasmid encoding RCC356 polypeptide along with 2 plasmides encoding firefly luciferase and renilla luciferase respectively. Firefly transcription was driven by a minimum promoter including the CREB-response element (CRE), whereas renilla luciferase was driven by CMV promoter, a strong constitutive promoter. Transfection was performed using lipofectamine 2000 reagent (Invitrogen). Transfected cells were let under standard culture conditions for a further 24 hours, and then process for functional assay.
(§2) Odorants were dissolved as 1M solutions in DMSO. They were then plated onto 96-well plates as 200 μM solutions in HBSS (Cambrex). DMSO represented thereby less than 1% (v/v) of the odorant solutions. Positive controls such as forskolin were included in odorant plates. Forskolin activates production of cAMP that in turn, through binding to CREB transcription factor triggers production of firefly luciferase, the reporter gene of the system. Detected luciferase activity in each well could be thereby expressed as a percent of forskolin response, allowing standardization thereon.
(§3) Functional assay was performed using Dual-Glo luciferase assay Kit according to manufacturer instructions (Promega).

SMILES | RCC356 activation in odorant screening (luciferase activity as percent of forskolin response)
CC(C)CC(=O)O [isovaleric acid] | seemed to lead to RCC356 activation
CCCCCC(=O)O [caproic acid] | seemed to lead to RCC356 activation
CCCCCCCC(=O)O [caprilic acid, caprylic acid] | seemed to lead to RCC356 activation
CCCCCCCCC(=O)O [pelargonic acid] | seemed to lead to RCC356 activation

The next lines start with the values.

RCC356 activation in odorant screening (luciferase activity as percent of forskolin response) | SMILES
seemed to lead to RCC356 activation | CCCCCCC(=O)O [oenanthylic acid]
seemed to lead to RCC356 activation | CCC(=O)O [propionic acid]
seemed to lead to RCC356 activation | CCCCC(=O)O [valeric acid]

same assay, conditions: Hek293 overexpressing RCC356; two independent screenings of 80 odorants

hit found in both independent screenings | SMILES
found in both screening | CC(C)CC(=O)O [isovaleric acid]
found in both screening | CCCCC(=O)O [valeric acid]

molecular target: T1, RCC356; test: Concentration-response analysis of odorants on Hek293 cells overexpressing RCC356 polypeptide, CRE-luciferase reporter (Dual-Glo); assay type: cell-based; details: 0.1 μM to 1 mM, CRE-luciferase, read-out: Ec50 of RCC356 activation
Experimental: as §1, with “To further validate hits found during screenings of 80 odorants on RCC356 overexpressing-Hek293 cells, concentration-response analyses have been performed. Hek293” for “Hek293”
as §2, with “First, tested odorants (isovaleric, valeric, propionic, hexanoic, heptanoic, caprilic and pelargonic acids) were” for “Odorants were”, “plates at different concentrations ranging from 0.1” for “plates as 200”, “μM to 1 mM” for “μM solutions”
as §3

SMILES | EC50 [µM]
CC(C)CC(=O)O [isovaleric acid] | 25
CCCCCC(=O)O [caproic acid] | 91
CCCCCCCC(=O)O [caprilic acid, caprylic acid] | 329
O=C(O)C1CCCCC1 [hexahydrobenzoic acid] | 104
CCCCCCCCC(=O)O [pelargonic acid] | 643

Continued, values first:

EC50 [µM] | SMILES
260 | CCCCCCC(=O)O [oenanthylic acid]
485 | C=CCCCC(=O)O [5-hexenoic acid]
97 | CCCCC(=O)O [valeric acid]

same assay, conditions: percent of forskolin response (FIG. 3A)

efficiency of ligand on RCC356 activation | SMILES
most efficient ligand | CC(C)CC(=O)O [isovaleric acid]
